Data: ChEMBL document CHEMBL1201862, “PubChem BioAssay data set” (2004)
Calls of active or inactive are those of the source.

Columns and labels:
[1] = Potency on glucagon-like peptide 1 release, dose-response in NCI-H716 cell line, half maximal inhibitory concentration (AID 1117344); format: functional, cell-based
[2] = glucagon-like peptide-1 release potency in STC-1, concentration-response, half-maximal inhibitory concentration in the STC-1 line (AID 1117345); format: functional, cell-based
[3] = molecular target: T1, Coagulation factor XII (Homo sapiens, UniProt P00748); format: functional;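 note: activated factor XIIa alpha cleaving a fluorogenic AMC peptide substrate; inhibitor potency from loss of enzyme activity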
T1 sequence (P00748 whole entry): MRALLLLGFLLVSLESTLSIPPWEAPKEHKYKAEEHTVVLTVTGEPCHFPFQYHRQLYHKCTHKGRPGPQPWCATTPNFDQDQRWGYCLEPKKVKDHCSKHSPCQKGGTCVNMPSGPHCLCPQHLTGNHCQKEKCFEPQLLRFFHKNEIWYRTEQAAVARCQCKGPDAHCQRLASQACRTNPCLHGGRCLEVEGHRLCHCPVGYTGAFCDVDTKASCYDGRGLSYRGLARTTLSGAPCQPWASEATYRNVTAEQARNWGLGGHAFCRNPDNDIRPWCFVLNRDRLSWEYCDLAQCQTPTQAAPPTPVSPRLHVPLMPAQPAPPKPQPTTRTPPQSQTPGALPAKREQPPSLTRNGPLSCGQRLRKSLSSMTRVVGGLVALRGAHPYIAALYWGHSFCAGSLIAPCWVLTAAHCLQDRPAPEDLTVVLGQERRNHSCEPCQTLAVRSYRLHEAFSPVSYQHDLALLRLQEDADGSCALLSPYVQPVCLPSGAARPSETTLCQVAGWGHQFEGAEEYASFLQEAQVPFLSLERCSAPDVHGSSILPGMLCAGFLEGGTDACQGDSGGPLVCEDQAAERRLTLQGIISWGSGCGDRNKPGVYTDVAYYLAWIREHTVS

[4] = molecular target: DNA damage-inducible transcript 3 protein (Mus musculus, UniProt P35639); format: functional, Cricetulus griseus
Chain of DNA damage-inducible transcript 3 protein (P35639 whole entry): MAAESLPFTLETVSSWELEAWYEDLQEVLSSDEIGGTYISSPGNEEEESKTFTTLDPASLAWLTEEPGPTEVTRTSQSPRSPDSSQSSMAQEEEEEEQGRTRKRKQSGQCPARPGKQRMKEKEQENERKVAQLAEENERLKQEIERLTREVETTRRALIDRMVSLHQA

[5] = molecular target: T2, Mannose-6-phosphate isomerase (Homo sapiens, UniProt P34949); assay: MPI inhibition at elevated mannose 6-phosphate – biochemical, fluorescence intensity, high mannose 6-phosphate, primary screen (AID 1220)
T2 sequence (P34949 whole entry): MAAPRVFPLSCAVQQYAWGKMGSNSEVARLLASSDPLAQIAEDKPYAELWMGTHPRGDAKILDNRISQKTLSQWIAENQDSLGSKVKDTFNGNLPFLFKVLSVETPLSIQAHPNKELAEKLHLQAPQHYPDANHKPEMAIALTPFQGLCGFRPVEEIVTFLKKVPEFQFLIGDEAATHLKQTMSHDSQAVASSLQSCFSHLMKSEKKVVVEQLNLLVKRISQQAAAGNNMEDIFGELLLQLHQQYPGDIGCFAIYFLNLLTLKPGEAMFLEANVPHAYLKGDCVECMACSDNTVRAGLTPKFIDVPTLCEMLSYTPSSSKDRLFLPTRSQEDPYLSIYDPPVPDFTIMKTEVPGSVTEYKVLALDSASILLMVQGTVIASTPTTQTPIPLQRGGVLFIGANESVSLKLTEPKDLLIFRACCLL

[6] = viability of PTEN-deleted HCT116 cells – cell-based, HCT116 PTEN knockout, dose response (AID 1047); format: functional;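 note: HCT116 colon tumor cells with PTEN knocked out; cells exposed to compound for 60 hours before readout; potency for loss of cell viability measured by luminescence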
[7] = viability of HCT116 lacking mutant beta-catenin – cell-based, human colon tumor, dose response (AID 1045); format: functional;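 note: HCT116 colon tumor cells with beta catenin knocked out; cells exposed to compound for 60 hours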
[8] = cells
[9] = Luminescence Cell-Based Dose Response HTS to Identify Inhibitors of 5'UTR Stem-Loop Driven Prion Protein mRNA Translation in H4 Neuroglioblastoma Cells. [Related pubchem assays: 1827 (Project Summary), 1813 (Primary HTS)]; format: functional
[10] = Luminescence-based cell-based high throughput dose response assay to identify activators of the DAF-12 from the parasite S. stercoralis (ssDAF-12).; format: functional
[11] = alpha-synuclein stem-loop luciferase translation blockers – H4 neuroglioma cells, luminescence, confirmation (AID 1988); format: functional, cell-based
[12] = molecular target: T3, Zinc finger protein mex-5 (Caenorhabditis elegans, UniProt Q9XUB2); assay: potency of MEX-5 RNA-binding blockers – biochemical, C. elegans, fluorescence polarization, dose response (AID 1960)
T3 sequence (Q9XUB2 whole entry): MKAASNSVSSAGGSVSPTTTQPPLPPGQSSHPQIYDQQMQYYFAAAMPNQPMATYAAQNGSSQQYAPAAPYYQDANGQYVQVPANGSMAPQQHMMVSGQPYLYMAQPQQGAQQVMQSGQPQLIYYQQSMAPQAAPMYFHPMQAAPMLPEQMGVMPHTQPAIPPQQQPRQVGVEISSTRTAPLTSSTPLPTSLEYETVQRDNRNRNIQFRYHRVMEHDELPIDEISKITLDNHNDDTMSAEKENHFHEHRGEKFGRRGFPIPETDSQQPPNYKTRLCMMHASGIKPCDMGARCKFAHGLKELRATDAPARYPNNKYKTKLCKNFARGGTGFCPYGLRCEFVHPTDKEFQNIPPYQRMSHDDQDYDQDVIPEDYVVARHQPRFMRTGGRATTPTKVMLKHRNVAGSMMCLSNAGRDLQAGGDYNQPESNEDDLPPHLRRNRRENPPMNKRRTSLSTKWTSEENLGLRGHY

[13] = molecular target: T4, Oxysterols receptor LXR-beta (Homo sapiens, UniProt P55055); format: functional, cell-based;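 note: Cell-based luminescence dose-response assay of agonist activity at LXR, run as a confirmatory counterscreen to a daf-12 agonist screen; HEK293 cells with Gal4-LXR fusion and GAL4-driven luciferase reporter; agonist potency from rising luciferase signal of a Gal4-LXR reporter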
T4 sequence (P55055 whole entry): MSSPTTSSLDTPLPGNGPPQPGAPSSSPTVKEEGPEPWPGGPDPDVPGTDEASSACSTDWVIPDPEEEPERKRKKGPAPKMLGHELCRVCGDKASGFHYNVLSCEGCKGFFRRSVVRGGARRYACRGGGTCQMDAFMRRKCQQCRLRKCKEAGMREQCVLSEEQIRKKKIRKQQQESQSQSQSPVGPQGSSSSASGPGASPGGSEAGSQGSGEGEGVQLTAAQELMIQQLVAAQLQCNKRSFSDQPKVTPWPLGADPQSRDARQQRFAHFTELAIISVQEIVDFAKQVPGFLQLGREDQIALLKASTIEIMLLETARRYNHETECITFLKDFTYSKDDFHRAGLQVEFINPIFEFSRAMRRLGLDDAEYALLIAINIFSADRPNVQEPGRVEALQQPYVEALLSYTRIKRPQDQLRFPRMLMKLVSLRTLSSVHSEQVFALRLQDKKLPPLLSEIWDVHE

[14] = molecular target: T5, RNA-binding protein pos-1 (Caenorhabditis elegans, UniProt G5EF15); assay: disruptors of C. elegans POS-1 RNA interaction – biochemical, fluorescence polarization, dose response (AID 1964);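 note: purified POS-1 fused to maltose binding protein made in E. coli; potency of compounds blocking POS-1 binding to fluorescent RNA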
T5 sequence (G5EF15 whole entry): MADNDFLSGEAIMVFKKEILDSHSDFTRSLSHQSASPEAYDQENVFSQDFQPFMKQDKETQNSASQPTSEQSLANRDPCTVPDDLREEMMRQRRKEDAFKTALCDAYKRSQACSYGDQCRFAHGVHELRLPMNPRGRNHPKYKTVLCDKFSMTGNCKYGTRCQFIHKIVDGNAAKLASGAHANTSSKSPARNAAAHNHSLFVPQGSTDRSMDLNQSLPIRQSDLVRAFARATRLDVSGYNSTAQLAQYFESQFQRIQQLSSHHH

[15] = molecular target: Endoplasmic reticulum aminopeptidase 1 (Homo sapiens, UniProt Q9NZ08); assay: inhibition of human ERAP1 enzyme activity – biochemical, cherry-pick, set 2, plate reader, dose response (AID 743314)
Chain of Endoplasmic reticulum aminopeptidase 1 (Q9NZ08 whole entry): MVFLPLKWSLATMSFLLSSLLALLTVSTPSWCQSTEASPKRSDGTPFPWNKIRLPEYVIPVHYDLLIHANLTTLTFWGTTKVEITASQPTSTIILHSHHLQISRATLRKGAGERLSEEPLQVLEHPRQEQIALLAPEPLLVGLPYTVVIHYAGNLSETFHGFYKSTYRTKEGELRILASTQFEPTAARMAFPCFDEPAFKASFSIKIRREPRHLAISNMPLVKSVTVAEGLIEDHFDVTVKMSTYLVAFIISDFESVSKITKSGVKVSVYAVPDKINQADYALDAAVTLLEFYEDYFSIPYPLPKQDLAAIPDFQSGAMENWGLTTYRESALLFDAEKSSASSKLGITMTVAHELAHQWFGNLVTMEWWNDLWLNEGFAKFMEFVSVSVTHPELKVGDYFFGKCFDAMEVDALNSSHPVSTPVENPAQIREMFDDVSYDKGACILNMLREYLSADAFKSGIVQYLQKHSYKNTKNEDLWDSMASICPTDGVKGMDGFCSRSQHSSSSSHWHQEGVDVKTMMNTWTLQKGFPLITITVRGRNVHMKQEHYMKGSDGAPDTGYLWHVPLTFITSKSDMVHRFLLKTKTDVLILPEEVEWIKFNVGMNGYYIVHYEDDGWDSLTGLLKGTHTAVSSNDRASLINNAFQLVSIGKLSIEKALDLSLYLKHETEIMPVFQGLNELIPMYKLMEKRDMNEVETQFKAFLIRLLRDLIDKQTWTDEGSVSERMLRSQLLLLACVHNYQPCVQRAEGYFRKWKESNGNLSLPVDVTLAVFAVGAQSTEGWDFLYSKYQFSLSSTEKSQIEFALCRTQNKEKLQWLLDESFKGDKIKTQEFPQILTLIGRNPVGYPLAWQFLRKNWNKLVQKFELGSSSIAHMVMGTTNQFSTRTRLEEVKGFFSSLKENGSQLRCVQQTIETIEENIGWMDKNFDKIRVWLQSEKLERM

[16] = Dd2 parasite growth inhibition in erythrocytes – SYBR Green, dry powder samples, set 9, dose response (AID 1159568); format: functional, cell-based
[17] = molecular target: T6, Probable nicotinate-nucleotide adenylyltransferase (Staphylococcus aureus (strain N315), UniProt P65502); format: functional, Staphylococcus aureus subsp. aureus N315;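 for IC50 Mean: confirmatory dose-response retesting of NadD inhibitor hits first found in an ultra-high-throughput screen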
T6 sequence (P65502 whole entry): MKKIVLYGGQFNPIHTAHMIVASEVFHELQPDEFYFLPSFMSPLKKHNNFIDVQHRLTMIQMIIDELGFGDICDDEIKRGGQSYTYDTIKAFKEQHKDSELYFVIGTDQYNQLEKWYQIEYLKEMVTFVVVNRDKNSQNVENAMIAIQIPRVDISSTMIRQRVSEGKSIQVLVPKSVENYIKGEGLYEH

[18] = molecular target: Genome polyprotein (Hepatitis C virus, UniProt Q2Q167); assay: disruption of hepatitis C core self-association – biochemical, TR-FRET, dose response (AID 2159); set-up: species or system Hepacivirus hominis;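 note: blocks dimerization of HCV core protein measured by TR-FRET between tagged core106 pairs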
Chain of Genome polyprotein (Q2Q167 whole entry): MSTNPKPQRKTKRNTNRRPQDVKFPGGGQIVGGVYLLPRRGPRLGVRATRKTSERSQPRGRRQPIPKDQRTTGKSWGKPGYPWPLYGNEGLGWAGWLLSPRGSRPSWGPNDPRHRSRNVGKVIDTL

[19] = Trypanosoma cruzi growth suppression in host cells – NIH3T3 host cells, beta-gal luminescence, confirmation (AID 2044); format: functional, cell-based;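 note: intracellular parasites grown in NIH/3T3 mouse fibroblasts as host cells; luminescent beta-galactosidase reporter signal from transgenic T. cruzi replicating inside host cells; inhibitors lower the luminescence signal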
[20] = NIH3T3 cell viability loss – ATP luminescence, mouse fibroblasts, counter-screen, dose response (AID 2010); format: functional, cell-based;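 note: cells exposed to compound for about 90 hours before reading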
[21] = molecular target: T6, Probable nicotinate-nucleotide adenylyltransferase; format: functional, Staphylococcus aureus subsp. aureus N315; conditions: read-out: IC50_Mean
[22] = Luminescence Cell-Based Secondary HTS screen to identify cytotoxic compounds of NIH3T3 cells. [Related pubchem assays: 1885, 1968 ]; format: functional
[23] = anti-trypanosomal activity in BESM host cells – imaging, CA-I/72 strain, bovine embryo skeletal muscle, dry powder, dose response (AID 651885); format: functional, cell-based
[24] = Trypanosoma cruzi replication inhibitors in host cells – cell-based, plate reader, dry powder samples, dose response (AID 651845); format: functional

For `COc1cc(Nc2c(C#N)cnc3cc(OCCCN4CCN(C)CC4)c(OC)cc23)c(Cl)cc1Cl`, the IC50 [1] was 25.1 µM (inactive) and the IC50 [2] was > 40 µM (inactive).

In the case of `COc1cc(C(=O)O/N=C2\C=CC(=O)C(C)=C2)cc(OC)c1OC`, the IC50 [3] is reported as 0.623 µM (active), the “Absolute IC50 (CHOP)” value [4] is reported as 10 µM and the IC50 [5] is reported as > 50 µM (not active). For the same compound, the EC50 [6] was 5.17 µM (active) and the EC50 [7] was 3.63 µM (active).

In the case of `O=C1c2ccccc2C(=O)C1c1ccc2ccccc2n1`, the EC50 [8] is reported as > 67.5 µM (inactive), the EC50 [9] is reported as 7.02 µM (active) and the IC50 [10] is reported as > 67.5 µM (inactive). The EC50 [11] was 3.11 µM (active), the EC50 [12] was > 300 µM (not active) and the EC50 [13] was > 67.5 µM (inactive). The EC50 [14] was > 300 µM (not active).

In the case of `COc1ccc(S(=O)(=O)N(C)C[C@@H]2Oc3ncccc3C(=O)N([C@H](C)CO)C[C@@H]2C)cc1`, the AC50 [15] is reported as 8.41 µM (active).

In the case of `C[C@H]1CN([C@@H](C)CO)C(=O)c2cccc(NC(=O)c3ccc(-c4nccs4)cc3)c2O[C@@H]1CN(C)C(=O)Nc1ccc(C(F)(F)F)cc1`, the AC50 [16] is reported as 9.87 µM (active).

With `Cc1ccc(C2CC(c3cccs3)=NN2C(=O)CSc2nc(=O)n3ccc(C)cc3n2)cc1` (stereo not drawn) the IC50 [17] was 5.52 µM (active), the IC50 [18] was > 49.8 µM (not active) and the EC50 [19] was 2.54 µM (active). The EC50 [20] was > 60 µM (not active) and the IC50 [21] was 25.4 µM (active).

For `COCc1cc(CN2CCCC(CNC(=O)c3ccc(F)cc3)C2)ccc1OC` (stereo not drawn), the EC50 [19] was 0.118 µM (active), the EC50 [20] was > 60 µM (not active) and the EC50 [22] was > 195 µM (not active).

For `Oc1cccc(-c2nnc(-c3cccc(O)c3)nn2)c1`, the EC50 [8] was > 67.6 µM (inactive) and the EC50 [13] was > 67.6 µM (inactive).

For `C[C@@H]1CN([C@@H](C)CO)C(=O)c2cccc(NC(=O)c3ccncc3)c2O[C@H]1CN(C)Cc1ccccc1Cl`, the IC50 [23] was 0.0114 µM (active) and the AC50 [24] was 0.158 µM (active).
